According to US20250092044A1, “Kinase Inhibitors” (Incyte Corporation, priority 2023, published 2025):

Assays:
TRKA [1] = assay: TRKA Enzymatic Assay; type: biochemical
Method: (§1) The kinase assays were carried out at 24° C. temperature in assay buffer (HEPES 50 mM, pH 7.0, NaN3 0.02%, BSA 0.01%, Orthovanadate 0.1 mM, DTT 1 mM, MgCl2 10 mM) in a final volume of 10 μL. Testing compounds were prepared by serial dilution in DMSO and transferred to the plate wells by ECHO liquid handler (Labcyte) with 0.5% DMSO in the final assay. […]. Reactions were initiated by the addition of 5 μL ATP in assay buffer. The final 10 μL kinase reaction consisted of 0.58 nM TRKA, 1 mM ATP, 500 nM TK Substrate-biotin and SEB reagent 62.5 nM in assay buffer. […] After 60 minutes incubation at room temperature, the product activity was determined by measuring the fluorescence at 620 nm and 665 nm on Pherastar microplate reader (BMG Labtech). A ratio was calculated (665/620 nm) for each well. Wells with DMSO only served as the positive controls and wells containing no ATP were used as negative controls. IC50 determination was performed by fitting the curve of percent control activity versus the log of the compound concentration using the Gene data.

TRKA [2] = biological target: TRKA (Homo sapiens (Human), UniProt P04629); assay: TRKA Enzymatic Assay; type: biochemical; conditions: 1 mM ATP
TRKA (Homo sapiens (Human), UniProt P04629), sequence (P04629 33-796, species assumed): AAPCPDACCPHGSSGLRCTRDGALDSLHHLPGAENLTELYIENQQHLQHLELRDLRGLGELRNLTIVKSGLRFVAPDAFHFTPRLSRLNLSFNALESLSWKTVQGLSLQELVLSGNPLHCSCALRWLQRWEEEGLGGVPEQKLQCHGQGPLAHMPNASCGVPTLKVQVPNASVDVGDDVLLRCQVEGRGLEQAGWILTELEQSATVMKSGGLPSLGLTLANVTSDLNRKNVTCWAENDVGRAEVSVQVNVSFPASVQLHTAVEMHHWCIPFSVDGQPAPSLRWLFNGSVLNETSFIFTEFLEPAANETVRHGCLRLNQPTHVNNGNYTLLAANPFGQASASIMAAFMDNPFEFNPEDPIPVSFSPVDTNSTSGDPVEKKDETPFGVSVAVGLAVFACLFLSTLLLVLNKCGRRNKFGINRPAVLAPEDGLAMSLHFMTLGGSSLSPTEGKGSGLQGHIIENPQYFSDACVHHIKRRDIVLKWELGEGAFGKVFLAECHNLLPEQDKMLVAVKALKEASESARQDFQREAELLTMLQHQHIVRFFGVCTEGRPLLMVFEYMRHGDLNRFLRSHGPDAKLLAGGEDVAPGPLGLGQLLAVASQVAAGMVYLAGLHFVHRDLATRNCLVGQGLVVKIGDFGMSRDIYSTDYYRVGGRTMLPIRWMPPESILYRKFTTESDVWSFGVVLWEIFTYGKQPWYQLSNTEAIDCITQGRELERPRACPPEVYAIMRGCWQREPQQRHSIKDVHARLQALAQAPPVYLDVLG
Method: as §1

FLT3 [3] = assay: FLT3 Enzymatic Assay; type: biochemical
Method: (§2) The kinase assays were carried out at room temperature in assay buffer (HEPES 50 mM, pH 7.0, NaN3 0.02%, BSA 0.01%, Orthovanadate 0.1 mM, DTT 1 mM, MgCl2 10 mM) in a final volume of 10 μL. Testing compounds were prepared by serial dilution in DMSO and transferred to the plate wells by ECHO liquid handler (Labcyte) with 0.5% DMSO in the final assay. […]. Reactions were initiated by the addition of 5 μL ATP in assay buffer. The final 10 μL kinase reaction consists of 0.011 nM FLT3, 1 mM ATP, 500 nM TK Substrate-biotin and SEB reagent 62.5 nM in assay buffer. […] The plates were then sealed and centrifuged at 1800 rpm for 2 minutes. After 60 minutes incubation at room temperature, the product activity was determined by measuring the fluorescence at 620 nm and 665 nm on Pherastar microplate reader (BMG Labtech). A ratio is calculated (665/620 nm) for each well. Wells with DMSO only were served as the positive controls and wells containing no ATP were used as negative controls. IC50 determination was performed by fitting the curve of percent control activity versus the log of the compound concentration using the GraphPad Prism 7.0 software.

FLT3 [4] = biological target: FLT3 (Homo sapiens (Human), UniProt P36888); assay: FLT3 Enzymatic Assay; type: biochemical; conditions: 1 mM ATP
FLT3 (Homo sapiens (Human), UniProt P36888), sequence (P36888 27-993, species assumed): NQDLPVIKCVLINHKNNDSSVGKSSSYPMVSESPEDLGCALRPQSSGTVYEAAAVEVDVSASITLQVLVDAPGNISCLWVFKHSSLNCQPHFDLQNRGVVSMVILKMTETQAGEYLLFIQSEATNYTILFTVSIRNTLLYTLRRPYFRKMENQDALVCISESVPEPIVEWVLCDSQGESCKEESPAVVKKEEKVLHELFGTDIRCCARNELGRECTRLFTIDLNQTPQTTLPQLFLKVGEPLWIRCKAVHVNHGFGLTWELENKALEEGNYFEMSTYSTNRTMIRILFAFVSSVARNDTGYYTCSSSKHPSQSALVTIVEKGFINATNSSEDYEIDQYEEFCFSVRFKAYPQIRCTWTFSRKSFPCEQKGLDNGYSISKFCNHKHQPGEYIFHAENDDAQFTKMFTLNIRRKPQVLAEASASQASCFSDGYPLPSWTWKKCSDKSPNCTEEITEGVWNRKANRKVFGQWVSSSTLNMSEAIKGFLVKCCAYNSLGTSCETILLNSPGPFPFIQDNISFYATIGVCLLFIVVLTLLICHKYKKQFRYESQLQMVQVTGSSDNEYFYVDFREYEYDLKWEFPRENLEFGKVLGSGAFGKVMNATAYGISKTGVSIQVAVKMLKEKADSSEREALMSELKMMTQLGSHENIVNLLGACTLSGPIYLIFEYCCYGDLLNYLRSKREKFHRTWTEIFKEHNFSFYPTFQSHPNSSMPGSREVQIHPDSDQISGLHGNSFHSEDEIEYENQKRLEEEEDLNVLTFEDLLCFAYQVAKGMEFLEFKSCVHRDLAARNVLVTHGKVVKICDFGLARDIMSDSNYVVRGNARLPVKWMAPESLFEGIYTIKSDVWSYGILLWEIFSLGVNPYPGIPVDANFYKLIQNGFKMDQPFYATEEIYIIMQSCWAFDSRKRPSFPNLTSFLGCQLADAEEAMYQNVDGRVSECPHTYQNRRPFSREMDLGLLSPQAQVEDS
Method: as §2

[5] = biological target: catalytic domain (JH1) of human JAK2 (Homo sapiens (Human), UniProt O60674); assay: JAK2 LanthaScreen JH1 Binding Assay; conditions: read-out: JH1 Bind IC50
catalytic domain (JH1) of human JAK2, sequence (O60674 826-1132): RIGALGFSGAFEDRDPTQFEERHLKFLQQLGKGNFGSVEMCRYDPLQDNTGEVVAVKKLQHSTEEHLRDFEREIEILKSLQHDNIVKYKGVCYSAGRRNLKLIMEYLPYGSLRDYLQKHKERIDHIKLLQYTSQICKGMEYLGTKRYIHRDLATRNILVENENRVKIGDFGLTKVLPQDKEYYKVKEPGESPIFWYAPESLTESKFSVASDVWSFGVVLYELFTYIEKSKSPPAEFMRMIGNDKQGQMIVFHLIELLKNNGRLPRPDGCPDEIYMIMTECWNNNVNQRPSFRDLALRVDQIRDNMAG
Method: JAK2 JH1 binding assay utilizes catalytic domain (JH1, amino acids 826-1132) of human JAK2 expressed as N-terminal FLAG-tagged, biotinylated protein in a baculovirus expression system (Carna Biosciences, Product #08-445-20N). The assay was conducted in black 384-well polystyrene plates in a final reaction volume of 20 μL. JAK2 JH1 (1.5 nM) was incubated with compounds (100 nL serially diluted in DMSO) in the presence of 50 nM fluorescent JAK2-JH1 tracer and 0.5 nM Streptavidin-Tb cryptate (Cisbio Part #610SATLB) in assay buffer (50 mM Tris, pH=7.5, 10 mM MgCl2, 0.01% Brij-35, 0.1% BSA, 1 mM EGTA, 5% Glycerol and 5 mM DTT). Non-specific binding was accessed in the presence of 2 mM ATP. After incubation for 2 hours at 25° C., LanthaScreen signals were read on a PHERAstar FS plate reader (BMG LABTECH). Data was analyzed with IDBS XLfit and GraphPad Prism 5.0 software using a four parameter dose response curve to determine IC50 for each compound.

[6] = system: STAT5 (Tyr694) phosphorylation in SET-2 cells; assay: STAT5 (Tyr694) Phosphorylation Cell Based Assay; conditions: Homo sapiens, 2 hours, read-out: SET2 IC50
Method: SET-2 cells was purchased from DSMZ (Germany). RPMI1640 medium, Fetal Bovine Serum and 384-white sold flat-bottom small volume plate were purchased from Thermo Fisher Scientific (Waltham, MA). Phospho-STAT5 (Tyr694) HTRF kit was purchased from Perkin Elmer (Waltham, MA).
SET-2 cells were cultured in RPMI media with 20% FBS at 37° C. in humidified incubator supplied with 5% CO2. On the day of assay, the cells were centrifuged to remove the culture media and resuspended with prewarmed RPMI with 10% FBS. Testing compounds were prepared by serial dilution in DMSO and 50 nL/well test compounds were transferred to the 384 white low volume cell culture plate (Greiner Bio-one) by ECHO liquid handler (Labcyte). The cells were then dispensed with Multidrop (Thermo Fisher, Waltham, MA) at 10 μL/well (7×10^6 cells/mL) with 0.5% DMSO in the final assay. After the treated cells were incubated for 2 hours at 37° C./5% CO2 incubator, 4 μL/well supplemented lysis buffer (100× blocking buffer diluted 25 fold in 4× lysis buffer, Perkin Elmer) were added and incubated at room temperature for 90 min on orbital shaker at 600 rpm. Phospho-STAT5 Cryptate antibody and Phospho-STAT5 d2 antibody (1:1 vol/vol) were premixed and diluted 20 fold with in the detection buffer (Perkin Elmer). 4 μL of the premixed antibody solution were added to each well followed with 24 hours incubation at room temperature on orbital shaker at 600 rpm. The product activity was determined by measuring the fluorescence at 620 nm and 665 nm on Pherastar microplate reader (BMG Labtech). A ratio is calculated (665/620) for each well. Wells with DMSO only served as the positive controls and wells containing high concentration of control compound were used as negative controls. IC50 determination was performed by fitting the curve of percent control activity versus the log of the compound concentration using the GraphPad Prism 7.0 software.

[7] = biological target: pseudo-kinase domain (JH2) of human V617F mutant JAK2 (Homo sapiens (Human), UniProt O60674, F794H/V617F/W659A/W777A); assay: JAK2 LanthaScreen JH2-V617F Binding Assay; conditions: read-out: JH2 V617F Bind IC50
pseudo-kinase domain (JH2) of human V617F mutant JAK2, sequence (O60674 536-812 V617F/W659A/W777A/F794H): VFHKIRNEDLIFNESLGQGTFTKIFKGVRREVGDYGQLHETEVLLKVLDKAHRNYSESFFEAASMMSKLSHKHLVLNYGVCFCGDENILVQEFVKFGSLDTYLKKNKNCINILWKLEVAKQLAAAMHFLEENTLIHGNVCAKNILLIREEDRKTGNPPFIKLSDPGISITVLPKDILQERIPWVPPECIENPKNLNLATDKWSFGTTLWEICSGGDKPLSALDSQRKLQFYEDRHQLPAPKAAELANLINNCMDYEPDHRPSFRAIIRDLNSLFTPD
Method: JAK2 JH2-V617F binding assay utilizes pseudo-kinase domain (JH2, amino-acids 536-812 with 3 surface mutations W659A, W777A, F794H) of human V617F mutant JAK2 expressed as C-terminal His-Avi-tagged, biotinylated protein in a baculovirus expression system (BPS Bioscience, Catalog #79498). The assay was conducted in black 384-well polystyrene plates in a final reaction volume of 20 μL. JAK2 JH2-V617F (0.26 nM) was incubated with compounds (100 nL serially diluted in DMSO) in the presence of 50 nM Fluorescent JAK2-JH2 Tracer (MedChem Express Catalog #HY-102055) and 0.25 nM Streptavidin-Tb cryptate (Cisbio Part #610SATLB) in assay buffer (50 mM Tris, pH=7.5, 10 mM MgCl2, 0.01% Brij-35, 0.1% BSA, 1 mM EGTA, 5% Glycerol and 5 mM DTT). Non-specific binding was accessed in the presence of 2 mM ATP. After incubation for 1 hour at 25° C., LanthaScreen signals were read on a PHERAstar FS plate reader (BMG LABTECH). Data was analyzed with IDBS XLfit and GraphPad Prism 5.0 software using a four parameter dose response curve to determine IC50 for each compound.

`COC(=O)N[C@@H]1CC[C@@H](n2c(=O)n(C)c3cnc4[nH]c(-c5ccc(C(=O)N6CCOCC6)cc5)c(-c5ccc6c(cnn6C(C)C)c5)c4c32)C1` [Example 20, Methyl ((1R,3R)-3-(8-(1-isopropyl-1H-indazol-5-yl)-3-methyl-7-(4-(morpholine-4-carbonyl)phenyl)-2-oxo-3,6-dihydroimidazo[4,5-d]pyrrolo[2,3-b]pyridin-1(2H)-yl)cyclopentyl)carbamate] was tested, and the “Selectivity TRKA/JH2 V617F” value (TRKA [1]) was “***** (selectivity of >5000-fold to ≤12500-fold)”, the IC50 (TRKA [2]) was 0.25 to 1.25 µM and the “Selectivity FLT3/JH2 V617F” value (FLT3 [3]) was “***** (selectivity of >5000-fold to ≤12500-fold)”. The IC50 (FLT3 [4]) was 0.25 to 1.25 µM, the IC50 [5] was greater than 1 µM and the IC50 [6] was no more than 0.3 µM. The IC50 [7] was no more than 0.01 µM.

For `COC(=O)N[C@@H]1CC[C@@H](n2c(=O)n(C)c3cnc4[nH]c(-c5ccc(C(=O)N6C7CCC6COC7)c(OC)c5)c(-c5cccc(F)c5)c4c32)C1` [Example 5, Methyl ((1R,3R)-3-(7-(4-(3-oxa-8-azabicyclo[3.2.1]octane-8-carbonyl)-3-methoxyphenyl)-8-(3-fluorophenyl)-3-methyl-2-oxo-3,6-dihydroimidazo[4,5-d]pyrrolo[2,3-b]pyridin-1(2H)-yl)cyclopentyl)carbamate], the “Selectivity TRKA/JH2 V617F” value (TRKA [1]) was “** (selectivity of >500-fold to ≤1500-fold)”, the IC50 (TRKA [2]) was 0.25 to 1.25 µM and the “Selectivity FLT3/JH2 V617F” value (FLT3 [3]) was “***** (selectivity of >5000-fold to ≤12500-fold)”. It also gave an IC50 (FLT3 [4]) of 1.25 to 2.5 µM, an IC50 [5] greater than 1 µM and an IC50 [6] greater than 0.8 µM. The IC50 [7] was no more than 0.01 µM.

`CCNC(=O)c1ccc(-c2[nH]c3ncc4c(c3c2-c2ccc3c(cnn3C(C)C)c2)n([C@@H]2CC[C@@H](NC(=O)OC)C2)c(=O)n4C)cc1OC` [Example 18, Methyl ((1R,3R)-3-(7-(4-(ethylcarbamoyl)-3-methoxyphenyl)-8-(1-isopropyl-1H-indazol-5-yl)-3-methyl-2-oxo-3,6-dihydroimidazo[4,5-d]pyrrolo[2,3-b]pyridin-1(2H)-yl)cyclopentyl)carbamate] was tested, and the “Selectivity TRKA/JH2 V617F” value (TRKA [1]) was “***** (selectivity of >5000-fold to ≤12500-fold)”, the IC50 (TRKA [2]) was 1.25 to 2.5 µM and the “Selectivity FLT3/JH2 V617F” value (FLT3 [3]) was “**** (selectivity of >1750-fold to ≤5000-fold)”. It also gave an IC50 (FLT3 [4]) of 0.25 to 1.25 µM, an IC50 [5] greater than 1 µM and an IC50 [6] of no more than 0.3 µM. The IC50 [7] was no more than 0.01 µM.

In the case of `COC(=O)N[C@@H]1CC[C@@H](n2c(=O)n(C)c3cnc4[nH]c(-c5ccc(C(=O)NCCCNc6ccccc6)c(F)c5)c(-c5ccc6c(cnn6C(C)C)c5)c4c32)C1` [Example 7, Methyl ((1R,3R)-3-(7-(3-fluoro-4-((3-(phenylamino)propyl)carbamoyl)phenyl)-8-(1-isopropyl-1H-indazol-5-yl)-3-methyl-2-oxo-3,6-dihydroimidazo[4,5-d]pyrrolo[2,3-b]pyridin-1(2H)-yl)cyclopentyl)carbamate], the “Selectivity TRKA/JH2 V617F” value (TRKA [1]) is reported as “***** (selectivity of >5000-fold to ≤12500-fold)”, the IC50 (TRKA [2]) is reported as greater than 2.5 µM and the “Selectivity FLT3/JH2 V617F” value (FLT3 [3]) is reported as “***** (selectivity of >5000-fold to ≤12500-fold)”. For the same molecule, the IC50 (FLT3 [4]) was greater than 2.5 µM, the IC50 [5] was greater than 1 µM and the IC50 [6] was greater than 0.8 µM. The IC50 [7] was no more than 0.01 µM.

For `COC(=O)N[C@@H]1CC[C@@H](n2c(=O)n(C)c3cnc4[nH]c(-c5ccc(C(=O)N6CCC(F)(F)CC6)c(F)c5)c(-c5ccc6c(cnn6C(C)C)c5)c4c32)C1` [Example 24, Methyl ((1R,3R)-3-(7-(4-(4,4-difluoropiperidine-1-carbonyl)-3-fluorophenyl)-8-(1-isopropyl-1H-indazol-5-yl)-3-methyl-2-oxo-3,6-dihydroimidazo[4,5-d]pyrrolo[2,3-b]pyridin-1(2H)-yl)cyclopentyl)carbamate], the “Selectivity TRKA/JH2 V617F” value (TRKA [1]) was “****** (selectivity of >12500-fold)”, the IC50 (TRKA [2]) was greater than 2.5 µM and the “Selectivity FLT3/JH2 V617F” value (FLT3 [3]) was “****** (selectivity of >12500-fold)”. It also gave an IC50 (FLT3 [4]) greater than 2.5 µM, an IC50 [5] greater than 1 µM and an IC50 [6] of 0.3 to 0.8 µM. For the same molecule, the IC50 [7] was no more than 0.01 µM.

In the case of `COC(=O)N[C@@H]1CC[C@@H](n2c(=O)n(C)c3cnc4[nH]c(-c5ccc(C(=O)N(C)C)cc5)c(-c5ccc6c(cnn6C(C)C)c5)c4c32)C1` [Example 22, Methyl ((1R,3R)-3-(7-(4-(dimethylcarbamoyl)phenyl)-8-(1-isopropyl-1H-indazol-5-yl)-3-methyl-2-oxo-3,6-dihydroimidazo[4,5-d]pyrrolo[2,3-b]pyridin-1(2H)-yl)cyclopentyl)carbamate], the “Selectivity TRKA/JH2 V617F” value (TRKA [1]) is reported as “***** (selectivity of >5000-fold to ≤12500-fold)”, the IC50 (TRKA [2]) is reported as 0.25 to 1.25 µM and the “Selectivity FLT3/JH2 V617F” value (FLT3 [3]) is reported as “***** (selectivity of >5000-fold to ≤12500-fold)”. For the same molecule, the IC50 (FLT3 [4]) was 0.25 to 1.25 µM, the IC50 [5] was greater than 1 µM and the IC50 [6] was no more than 0.3 µM. It also gave an IC50 [7] of no more than 0.01 µM.
